Data published in US6495336B1, “Oligopeptide derivatives for the electrochemical measurement of protease activity” (Pentapharm AG, priority 2001, dated 2002).

Key:
thrombin = target: T1, thrombin (Homo sapiens, UniProt P00734); test: Measurement of the enzymic activity of thrombin in solution (amperometric hydrolysis of substrate); format: biochemical; conditions: substrate c = 0.5 mmol, 1 NIH-U of thrombin, 400 mV, HEPES 50 mM pH 7.4, KCl 0.1 M, 25° C.
T1 construct: purchased Diagnotec Liestal 100-500
Experimental: 1) A Tacusell PGP201 potentiostat, software VM1, which maintains a constant potential difference between the measuring electrode and reference electrode, is used. The measuring cell used is a glass beaker with a capacity of 25 ml or 1 ml, which can receive the 3 electrodes.
2) A platinum wire with a surface area of 34 mm^2 or 3 mm^2 is used as measuring electrode.
3) A calomel electrode (SCE) is used as reference electrode at which the potentials are measured.
4) The auxiliary electrode consists of platinum wire and serves to ensure passage of the current.
5) The measured solution is stirred by a magnetic stirrer for homogenization.
Thrombin concentration: 0.5, 1.0, 2 NIH-U/ml
Buffer: HEPES buffer, 50 mM, pH 7.4, KCl, 0.1 M
For example a 0.5 mM solution of the substrate Tos-Gly-Pro-Arg 3-chloro-4-hydroxyanilide×AcOH in HEPES buffer is prepared, as is a stock solution of thrombin with 100 NIH-U/1 ml in distilled water. 1 ml of substrate solution (c=0.5 mmol) is introduced into a 1 ml measuring cell provided with 3 electrodes of the Tacusell PGP201 potentiostat, software VM1. A cycle is allowed to run potentiodynamically from −30 to 500 mV to record the zero value (10 min). For the measurement, 10 µl of thrombin solution (final concentration 1.0 NIH-U/ml) is placed in the measuring cell, […], after mixing for 30 sec, the current is recorded potentiostatically over a time of 10 min. The measurements are carried out as duplicate determination.
FIGS. 5, 6 and 7 (μA cm^2/min, T=0-5 min, at 400 mV) show the linear cleavage rates by means of 3 substrates with different electroactive groups at a thrombin concentration of 1 NIH-U and substrate concentration c=0.5 mmol: […]

[1] = Cyclic voltammogram of the substrate (electroactivity); format: physicochemical; conditions: c=0.5 mM in HEPES buffer, pH=7.4, 0.1 M KCl; -30 to 600 mV; 1 ml cell, electrode 3 mm^2
From the text: […] A measurement cycle can take place when the basic current affords sufficient accuracy. The basic current is subtracted from the measurement during the hydrolysis of a substrate or the recording of a profile of an electroactive compound.
2) Evaluation of the results: the currents recorded in the linearity range are, after subtraction of the basic current at the relevant potential, proportional to the concentration of the electroactive species during the hydrolysis. The liberated electroactive species, which is cleaved off by the substrate, is likewise proportional to the enzyme concentration employed.
3) A platinum electrode is used to record the cyclic voltammograms at concentrations of 0.25 mmol, 0.5 mmol and 1.0 mmol. HEPES, 50 mmol at pH 7.4, is used as buffer. FIGS. 1 and 2 show typical cyclic reversible plots for 4-amino-2-chlorophenol and 5-amino-8-hydroxyquinoline: recorded from −30 to 600 mV at 500 mV/min. These amperogenic substances preferably show a linear dependence of the current strength on the concentration at low potential in the region of 300 mV, with a high current strength. The system is in equilibrium in this case. A higher voltage of >400 mV is undesired because of interference with possible constituents in the blood, for example paracetamol. […]

Standardization: current resulting from hydrolysis of the substrate with thrombin, per cm^2 of electrode surface area in one minute (thrombin) | Electroactivity of the uncleaved substrate at 400 mV [1] | Substance
3 μA/cm^2 of electrode | – | H-(D)-Chg-Gly-Arg 3-chloro-4-hydroxyanilide×2 TFA
2 μA/cm^2 of electrode | no electroactivity | Tos-Gly-Pro-Arg 3-chloro-4-hydroxyanilide×AcOH
0.5 μA/cm^2 of electrode | – | Z-gly-pro-arg 2-chloro-4-hydroxyanilide×HCl
